Results: article PMC7463537, “Synthesis and Evaluation of Antimicrobial and Cytotoxic Activity of Oxathiine-Fused Quinone-Thioglucoside Conjugates of Substituted 1,4-Naphthoquinones” (Molecules, 2020)

Assays:
S. aureus ATCC 21027 = experiment: Agar diffusion method, S. aureus; format: cell-based, Staphylococcus aureus; design: key to Diameter of Zone Inhibition, S. aureus: Zones within 20–40 mm mean strong antibiotic activity; zones up to 20 mm—moderate; ≤10 mm—weak; +—insignificant; details: for zone of inhibition at 100 µg/disc: ATCC21027, 24 h
Protocol: (§1) Elyakov Pacific Institute of Bioorganic Chemistry, Far East Branch, Russian Academy of Sciences. Test substances were dissolved in DMSO at concentrations of 1.0, 0.1, and 0.01 mg/mL. All strains were grown on trypticase-soy agar TSA (BBL) at 37 °C. […] After incubation of the dishes at 37 °C for 24 h (for bacteria) and 48 h (for the fungus) at 28 °C, the diameters of the growth inhibition zones of pathogenic microorganisms (mm) were measured, including the diameter of the wells. Commercial antibacterial drugs (vancomicin and gentamicin) and antifungal (clotrimazol) drugs were used as positive controls.

B. cereus ATCC 10702 = experiment: Agar diffusion method, B. cereus; format: cell-based, Bacillus cereus; details: Bacillus cereus, read-out: Diameter of Zone Inhibition, B. cereus; for zone of inhibition at 100 µg/disc: ATCC10702, 24 h, 100 µg/well, 24 h, incl. 7 mm well
Protocol: as §1

P. aeruginosa ATCC 27853 = experiment: Agar diffusion method, P. aeruginosa; format: cell-based, Pseudomonas aeruginosa; details: Pseudomonas aeruginosa, read-out: Diameter of Zone Inhibition, P. aeruginosa; for zone of inhibition at 100 µg/disc: ATCC27853, 100 µg/well
Protocol: as §1

E. coli K-12 = experiment: Agar diffusion method, E. coli; format: cell-based, Escherichia coli; details: for zone of inhibition at 100 µg/disc / Diameter of Zone Inhibition, E. coli: 100 µg/well
Protocol: as §1

C. albicans KMM 453 = experiment: Agar diffusion method, C. albicans; format: cell-based; details: Candida albicans, KMM453, 48 h, 100 µg/well, 48 h at 28 °C; read-out: Diameter of Zone Inhibition, C. albicans
Protocol: as §1

[1] = tested on: human cervical cancer (HeLa); experiment: Cytotoxicity, MTT assay, HeLa cells; details: for EC50: Homo sapiens, HeLa, 24 h, read-out: Cytotoxicity (EC50), HeLa; for Selectivity Index (SI), HeLa: SI = EC50 (Jb6 Cl 41-5a normal cells)/EC50 (tumor cells)
[2] = tested on: mouse neuroblastoma (Neuro 2a); experiment: Cytotoxicity, MTT assay, Neuro 2a cells; details: for EC50: N2a, 24 h, read-out: Cytotoxicity (EC50), Neuro 2a; for Selectivity Index (SI), Neuro-2a: SI = EC50 (Jb6 Cl 41-5a normal cells)/EC50 (tumor cells)
[3] = Cytotoxicity, MTT assay, Jb6 Cl 41-5a normal epithelial cells; details: mouse, Jb6 Cl 41-5a normal epithelial cells
[4] = tested on: mouse ascites Ehrlich carcinoma; experiment: Cytotoxicity, nonspecific esterase (FDA) assay, ascites Ehrlich carcinoma cells; details: for EC50: Mus musculus, Ehrlich, 24 h, read-out: Cytotoxicity (EC50), Ascites Ehrlich Carcinoma; for Selectivity Index (SI), Ascitic Ehrlich Carcinoma: SI = EC50 (Jb6 Cl 41-5a normal cells)/EC50 (tumor cells)
[5] = Staphylococcus aureus, 100 µg/well, 24 h, incl. 7 mm well, read-out: Diameter of Zone Inhibition, S. aureus
[6] = Escherichia coli, K12, read-out: Diameter of Zone Inhibition, E. coli

| SMILES | zone of inhibition at 100 µg/disc (S. aureus ATCC 21027; [5]) [mm] | zone of inhibition at 100 µg/disc (B. cereus ATCC 10702) [mm] | zone of inhibition at 100 µg/disc (P. aeruginosa ATCC 27853) [mm] | zone of inhibition at 100 µg/disc (E. coli K-12; [6]) [mm] | zone of inhibition at 100 µg/disc (C. albicans KMM 453) [mm] | melting point [°C] | EC50 [1] [µM] | EC50 [2] [µM] | EC50 at 24 h [3] [µM] | EC50 [4] [µM] | Diameter of Zone Inhibition, E. coli (E. coli K-12) | Selectivity Index (SI), HeLa [1] | Selectivity Index (SI), Neuro-2a [2] | Selectivity Index (SI), Ascitic Ehrlich Carcinoma [4] | zone of inhibition at 10 µg/disc (S. aureus ATCC 21027; Staphylococcus aureus, ATCC21027, 10 µg/well (gentamicin: disk), read-out: Diameter of Zone Inhibition, S. aureus) [mm] | zone of inhibition at 10 µg/disc (B. cereus ATCC 10702; ATCC10702, 10 µg/well (gentamicin: disk)) [mm] | zone of inhibition at 10 µg/disc (P. aeruginosa ATCC 27853; ATCC27853, 10 µg (disk)) [mm] | zone of inhibition at 10 µg/disc (E. coli K-12; Escherichia coli, K12, 10 µg (disk), read-out: Diameter of Zone Inhibition, E. coli) [mm] | Diameter of Zone Inhibition, S. aureus (S. aureus ATCC 21027; 100 µg/well, 24 h, incl. 7 mm well) |
| --- | --- | --- | --- | --- | --- | --- | --- | --- | --- | --- | --- | --- | --- | --- | --- | --- | --- | --- | --- |
| COc1ccc(OC)c2c1C(=O)C1=C(S[C@@H]3OC[C@H](O)[C@H](O)[C@H]3O1)C2=O [Compound 17d, (3S,4S,4aR,12aS)-3,4-Dihydroxy-7,10-dimethoxy-3,4,4a,12a-tetrahydro-2H-naphtho[2,3-b]pyrano[2,3-e][2,5]oxathiine-6,11-dione] | 0 | 0 | 0 | 0 | ≤ 10 | 317 to 320 | > 25 | > 25 | > 25 | > 25 |  |  |  |  |  |  |  |  |  |
| COc1c(Cl)c(Cl)c(OC)c2c1C(=O)C1=C(S[C@@H]3OC[C@H](O)[C@H](O)[C@H]3O1)C2=O [Compound 18d, (3S,4S,4aR,12aS)-8,9-Dichloro-3,4-dihydroxy-7,10-dimethoxy-3,4,4a,12a-tetrahydro-2H-naphtho[2,3-b]pyrano[2,3-e][2,5]oxathiine-6,11-dione] | < 20 | < 20 | 0 | 0 | 0 | 286 to 289 | 8.7 | 2.8 | 4.3 | 4.1 | not active | 0.5 | 1.5 | 1 |  |  |  |  |  |
| CNC(C)C1CCC(N)C(OC2C(N)CC(N)C(OC3OCC(C)(O)C(NC)C3O)C2O)O1 (centres unmarked) [Gentamicin (disk), reference compound] |  |  |  |  |  |  |  |  |  |  |  |  |  |  | 25 ± 2 | 25 ± 1 | 18 ± 2 | 22 ± 3 |  |
| COc1c(Cl)c(Cl)c(OC)c2c1C(=O)C1=C(S[C@@H]3OC[C@@H](O)[C@H](O)[C@H]3O1)C2=O [Compound 18c, (3R,4S,4aR,12aS)-8,9-Dichloro-3,4-dihydroxy-7,10-dimethoxy-3,4,4a,12a-tetrahydro-2H-naphtho[2,3-b]pyrano[2,3-e][2,5]oxathiine-6,11-dione] | < 20 | < 20 | 0 | 0 | 0 | 277 to 279 | 10.1 | 4.1 | 3.8 | 4.5 | not active | 0.4 | 0.9 | 0.8 |  |  |  |  |  |
| COc1c(Cl)c(Cl)c(OC)c2c1C(=O)C1=C(S[C@@H]3O[C@H](CO)[C@@H](O)[C@H](O)[C@H]3O1)C2=O [Compound 18a, (2R,3S,4S,4aR,12aS)-8,9-Dichloro-3,4-dihydroxy-2-hydroxymethyl-7,10-dimethoxy-3,4,4a,12a-tetrahydro-2H-naphtho[2,3-b]pyrano[2,3-e][2,5]oxathiine-6,11-dione] |  | 0 | 0 | 0 | 0 | 222 to 224 | 10.9 | 2.4 | 1.5 | 8.8 |  | 0.1 | 0.6 | 0.2 |  |  |  |  | + |
| COc1ccc(OC)c2c1C(=O)C1=C(S[C@@H]3O[C@H](CO)[C@@H](O)[C@H](O)[C@H]3O1)C2=O [Compound 17a, (2R,3S,4S,4aR,12aS)-3,4-Dihydroxy-2-hydroxymethyl-7,10-dimethoxy-3,4,4a,12a-tetrahydro-2H-naphtho[2,3-b]pyrano[2,3-e][2,5]oxathiine-6,11-dione] | 0 | 0 | 0 | 0 | 0 | 332 to 335 | > 25 | > 25 | > 25 | > 25 |  |  |  |  |  |  |  |  |  |
